Experimental data reported in ChEMBL document CHEMBL1154401, “Therapeutic effect of nisin Z on subclinical mastitis in lactating cows” (Antimicrob Agents Chemother, 2007).

Tests used:
Staphylococcus aureus [1] = assay: Sensitivity of Staphylococcus aureus isolated from lactating Holstein bovine subclinical mastitis model at 5 ug/disk after 20 hrs; format: functional; conditions: read-out: IZ
Staphylococcus aureus [2] = assay: Resistance of Staphylococcus aureus isolated from lactating Holstein bovine subclinical mastitis model at 5 ug/disk after 20 hrs; format: functional
Streptococcus agalactiae = assay: Antibacterial activity against Streptococcus agalactiae in lactating Holstein bovine subclinical mastitis model assessed as reduction in intramammary infections at 2.5X10'6 IU, intramammary dosed after morning milking relative to control; format: functional; design: scale not given: the % may be the effect or the level left
Bos taurus [3] = assay: Antiinflammatory activity in lactating Holstein bovine subclinical mastitis model assessed as reduction in N-acetyl-beta-D-[…] activity at 2.5X10'6 IU, intramammary dosed after morning milking measured after 1 week; format: functional
Bos taurus [4] = assay: Antiinflammatory activity in lactating Holstein bovine subclinical mastitis model assessed as reduction in number of mammary gland quarters with somatic cell count of >=5X10'5/ml at 2.5X10'6 IU, intramammary dosed after morning milking measured after 1 week; format: functional; design: scale not given: the % may be the effect or the level left
Bos taurus [5] = assay: Antiinflammatory activity in lactating Holstein bovine subclinical mastitis model assessed as reduction in N-acetyl-beta-D-[…] activity at 2.5X10'6 IU, intramammary dosed after morning milking measured after 2 weeks; format: functional
Staphylococcus = assay: Antibacterial activity against coagulase-negative Staphylococcus infected in lactating Holstein bovine subclinical mastitis model assessed as reduction in intramammary infections at 2.5X10'6 IU, intramammary dosed after morning milking relative to control; format: functional; design: scale not given: the % may be the effect or the level left
Staphylococcus aureus [6] = assay: Antibacterial activity against Staphylococcus aureus in lactating Holstein bovine subclinical mastitis model assessed as reduction in intramammary infections at 2.5X10'6 IU, intramammary dosed after morning milking relative to control; format: functional; design: scale not given: the % may be the effect or the level left
Bos taurus [7] = assay: Antiinflammatory activity in lactating Holstein bovine subclinical mastitis model assessed as reduction in number of mammary gland quarters with somatic cell count of >=5X10'5/ml at 2.5X10'6 IU, intramammary dosed after morning milking measured after 2 weeks; format: functional; design: scale not given: the % may be the effect or the level left
Staphylococcus aureus [8] = assay: Antibacterial activity against Staphylococcus aureus isolated from milk of Holstein bovine subclinical mastitis model after 2 hrs; format: functional
Staphylococcus aureus [9] = assay: Resistance of Staphylococcus aureus isolated from lactating Holstein bovine subclinical mastitis model at 10 ug/disk after 20 hrs; format: functional
Staphylococcus aureus [10] = assay: Sensitivity of Staphylococcus aureus isolated from lactating Holstein bovine subclinical mastitis model at 10 ug/disk after 20 hrs; format: functional; conditions: read-out: IZ
Staphylococcus aureus [11] = assay: Resistance of Staphylococcus aureus isolated from lactating Holstein bovine subclinical mastitis model at 30 ug/disk after 20 hrs; format: functional
Staphylococcus aureus [12] = assay: Sensitivity of Staphylococcus aureus isolated from lactating Holstein bovine subclinical mastitis model at 30 ug/disk after 20 hrs; format: functional; conditions: read-out: IZ
[13] = Drug level in milk of lactating Holstein bovine mastitis model at 2.5X10'6 IU, intramammary administered once daily for 3 days measured after 48 hrs; format: ADME, Bos taurus; conditions: cattle, other
[14] = Drug level in milk of lactating bovine clinical mastitis model at 2.5X10'6 IU, intramammary dosed twice daily for 3 days measured after 12 hrs; format: ADME, organism-based, Bos taurus; conditions: cattle, in vivo, other
Bos taurus [15] = assay: Toxicity in Holstein bovine assessed as visible local reaction at 5X10'6 IU, intramammary dosed in right forequarter of mammary gland after morning milking after 24 hrs by irritancy test; format: organism-based; conditions: cattle, in vivo, other
Bos taurus [16] = assay: Toxicity in intramammary dosed Holstein bovine assessed as increase in somatic cell count in dosed after morning milking by irritancy test; format: organism-based; conditions: cattle, other
Bos taurus [17] = assay: Toxicity in Holstein bovine assessed as visible local reaction at 2.5X10'6 IU, intramammary dosed in right hindquarter of mammary gland after morning milking by irritancy test; format: organism-based; conditions: cattle, in vivo, other
[18] = Drug level in milk of lactating bovine subclinical mastitis model at 2.5X10'6 IU after 48 hrs; format: ADME, Bos taurus; conditions: cattle
[19] = Drug level in milk of lactating bovine subclinical mastitis model at 2.5X10'6 IU after 24 hrs; format: ADME, Bos taurus; conditions: cattle
Bos taurus [20] = assay: Toxicity in intramammary dosed Holstein bovine assessed as increase in N-acetyl-beta-D-[…] in milk dosed after morning milking by irritancy test; format: organism-based; conditions: cattle, in vivo, other
Bos taurus [21] = assay: Toxicity in Holstein bovine assessed as visible local reaction with swollen and tender mammary gland at 5X10'6 IU, intramammary dosed in right forequarter of mammary gland after morning milking by irritancy test; format: organism-based; conditions: cattle, in vivo, other
Bos taurus [22] = assay: Toxicity in Holstein bovine assessed as decreased milk yeild at 1.25X10'6 IU, intramammary dosed in left hindquarter of mammary gland of mammary gland after morning milking by irritancy test; format: organism-based; conditions: cattle, in vivo, other
Bos taurus [23] = assay: Toxicity in Holstein bovine assessed as decreased milk yeild at 2.5X10'6 IU, intramammary dosed in right hindquarter of mammary gland after morning milking by irritancy test; format: organism-based; conditions: cattle, in vivo, other
Bos taurus [24] = assay: Toxicity in Holstein bovine assessed as decreased milk yeild with clots and flakes in milk at 5X10'6 IU, intramammary dosed in right forequarter of mammary gland after morning milking by irritancy test; format: organism-based; conditions: cattle, in vivo, other
Bos taurus [25] = assay: Toxicity in Holstein bovine assessed as visible local reaction at 1.25X10'6 IU, intramammary dosed in left hindquarter of mammary gland after morning milking by irritancy test; format: organism-based; conditions: cattle, in vivo, other
[26] = Drug level in milk of lactating Holstein bovine mastitis model at 2.5X10'6 IU, intramammary administered once daily for 3 days measured after 24 hrs; format: ADME, Bos taurus; conditions: cattle, other
[27] = Staphylococcus aureus, 20 h, read-out: IZ

Compound: CCn1cc(C(=O)O)c(=O)c2cc(F)c(N3CCNCC3)cc21 [NORFLOXACIN]
- zone of inhibition at 5 µg/disc (Staphylococcus aureus [1]): ≥ 17 mm
- Activity (Staphylococcus aureus [2]): 75%
- zone of inhibition at 5 µg/disc (Staphylococcus aureus [2]; [27]): ≤ 12 mm

Compound: C=C(NC(=O)[C@@H](NC(=O)[C@H](Cc1cnc[nH]1)NC(=O)[C@@H](NC(=O)[C@H](CO)NC(=O)[C@@H]1CS[C@@H](C)[C@H]2NC(=O)[C@H](C)NC(=O)[C@H](NC(=O)[C@H](CCCCN)NC(=O)[C@H](CCSC)NC(=O)[C@H](CC(N)=O)NC(=O)[C@@H]3CS[C@@H](C)[C@@H](NC(=O)[C@H](CCCCN)NC(=O)[C@@H]4CS[C@@H](C)[C@@H](NC(=O)[C@@H]5CSC[C@@H](NC(=O)/C(=C/C)NC(=O)[C@@H](N)[C@@H](C)CC)C(=O)N[C@@H]([C@@H](C)CC)C(=O)NC(=C)C(=O)N[C@@H](CC(C)C)C(=O)N5)C(=O)N5CCC[C@H]5C(=O)NCC(=O)N4)C(=O)NCC(=O)N[C@@H](C)C(=O)N[C@@H](CC(C)C)C(=O)N[C@@H](CCSC)C(=O)NCC(=O)N3)[C@H](C)SC[C@H](NC2=O)C(=O)N[C@@H](CC(N)=O)C(=O)N1)[C@@H](C)CC)C(C)C)C(=O)N[C@@H](CCCCN)C(=O)O
- Activity (Streptococcus agalactiae): 90.9%
- Activity (Bos taurus [3]): 26.2 U/ml
- Activity (Bos taurus [4]): 58.7%
- Activity (Bos taurus [5]): 28.9 U/ml
- Activity (Staphylococcus): 58.8%
- Activity (Staphylococcus aureus [6]): 50%
- Activity (Bos taurus [7]): 70.5%
- MIC (Staphylococcus aureus [8]): 75.5 IU/ml

Compound: CC1(C)S[C@@H]2[C@H](NC(=O)Cc3ccccc3)C(=O)N2[C@H]1C(=O)O [PENICILLIN G]
- Activity (Staphylococcus aureus [9]): 80%
- zone of inhibition at 10 µg/disc (Staphylococcus aureus [9]; [27]): ≤ 28 mm
- zone of inhibition at 10 µg/disc (Staphylococcus aureus [10]): ≥ 29 mm

Compound: Cc1nnc(SCC2=C(C(=O)O)N3C(=O)[C@@H](NC(=O)Cn4cnnn4)[C@H]3SC2)s1 [CEFAZOLIN]
- Activity (Staphylococcus aureus [11]): 5%
- zone of inhibition at 30 µg/disc (Staphylococcus aureus [11]; [27]): ≤ 14 mm
- zone of inhibition at 30 µg/disc (Staphylococcus aureus [12]): ≥ 18 mm

Compound: C=C(NC(=O)[C@@H](NC(=O)[C@H](Cc1c[nH]cn1)NC(=O)[C@@H](NC(=O)[C@H](CO)NC(=O)[C@@H]1CS[C@@H](C)[C@H]2NC(=O)[C@H](C)NC(=O)[C@H](NC(=O)[C@H](CCCCN)NC(=O)[C@H](CCSC)NC(=O)[C@H](CC(N)=O)NC(=O)[C@@H]3CS[C@@H](C)[C@@H](NC(=O)[C@H](CCCCN)NC(=O)[C@@H]4CS[C@@H](C)[C@@H](NC(=O)[C@@H]5CSC[C@@H](NC(=O)/C(=C/C)NC(=O)[C@@H](N)[C@@H](C)CC)C(=O)N[C@@H]([C@@H](C)CC)C(=O)NC(=C)C(=O)N[C@@H](CC(C)C)C(=O)N5)C(=O)N5CCC[C@H]5C(=O)NCC(=O)N4)C(=O)NCC(=O)N[C@@H](C)C(=O)N[C@@H](CC(C)C)C(=O)N[C@@H](CCSC)C(=O)NCC(=O)N3)[C@H](C)SC[C@H](NC2=O)C(=O)N[C@@H](CC(N)=O)C(=O)N1)[C@@H](C)CC)C(C)C)C(=O)N[C@@H](CCCCN)C(=O)O
- Drug uptake [13]: 5.7 IU/ml
- Drug uptake [14]: 4.5 IU/ml
- Activity (Bos taurus [15]): Toxic
- Activity (Bos taurus [16]): Dose-dependent effect
- Activity (Bos taurus [17]): Non-toxic
- Drug uptake [18]: 15 IU/ml
- Activity [19]: 83 IU/ml
- Activity (Bos taurus [20]): Dose-dependent effect
- Activity (Bos taurus [21]): Toxic
- Activity (Bos taurus [22]): Non-toxic
- Activity (Bos taurus [23]): Non-toxic
- Activity (Bos taurus [24]): Toxic
- Activity (Bos taurus [25]): Non-toxic
- Drug uptake [26]: 75.8 IU/ml

Compound: GENTAMICIN
- Activity (Staphylococcus aureus [9]): 45%
